Broadly, the pIC50 is −log10 of the IC50, conventionally taken in molar units.

pIC50: −log10 of the molar value.

In the test the test system is HuH-7 replicon cells 5–15 and 9–13 (HCV replication). Briefly: Inhibition of viral replication in HuH-7 replicon cells (HCV RNA / GAPDH RNA by multiplex RT-PCR). Conditions: Hepatitis C virus, 72 h; inhibiting 50% of replication; HuH-7 replicon cells, 3 days; read-out: IC50. Format: cell-based. In short, it runs like this: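 Replicon cells seeded at 7×10^3 cells/well, grown 24 h, then exposed 3 days at 37 °C to compound at final 100 μM–1 μM (1% DMSO). Multiplex TaqMan RT-PCR on total RNA quantified HCV 5′-UTR and GAPDH RNA against a standard curve; HCV/GAPDH ratio reported as percent of untreated control.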
On the technique in general: A replicon is a self-replicating genome or part of one, used to study replication in cells.
As to `O=C(N/N=C/c1ccccc1OS(=O)(=O)c1ccc(C(F)(F)F)cc1)c1ccccc1Br` [Compound 88, 2-{(E)-[2-(2-bromobenzoyl)hydrazono]methyl}phenyl4-(trifluoromethyl)benzenesulfonate], the pIC50 was over 5.30.

Regarding `O=C(Cc1ccccc1)N/N=C/c1ccccc1OS(=O)(=O)c1ccc(C(F)(F)F)cc1` [Compound 123, 2-{(E)-[2-(2-phenylacetyl)hydrazono]methyl}phenyl 4-(trifluoromethyl)benzenesulfonate], the pIC50 is over 5.30.

In the case of `O=C(Cc1ccccc1)N/N=C/c1ccccc1OCc1cccc2ccccc12` [Compound 238, N′-{(1E)-[2-(1-naphthylmethoxy)phenyl]methylene}-2-phenylacetohydrazide], the negative-log IC50 (pIC50) is 4.30 to 5.30.

For `O=C(N/N=C/c1ccccc1OS(=O)(=O)c1ccc(C(F)(F)F)cc1)c1ccccc1Cl` [Compound 73, 2-{(E)-[2-(2-chlorobenzoyl)hydrazono]methyl}phenyl 4-(trifluoromethyl)benzenesulfonate], the pIC50 is over 5.30.

Turning to `COc1cccc(CC(=O)N/N=C/c2cc(F)ccc2OS(=O)(=O)c2ccc(C(F)(F)F)cc2)c1` [Compound 172, 4-fluoro-2-((E)-{[(3-methoxyphenyl)acetyl]hydrazono}methyl)-phenyl 4-(trifluoromethyl)benzenesulfonate], the pIC50 was over 5.30.

With `CC(C)(C)c1ccc(COc2ccccc2/C=N/NC(=O)Cc2cccnc2)cc1` [Compound 237, N′-((1E)-{2-[(4-tert-butylbenzyl)oxy]phenyl}methylene)-2-pyridin-3-ylacetohydrazide], the pIC50 is under 4.30.

On to `O=C(N/N=C/c1ccccc1OS(=O)(=O)c1ccc(C(F)(F)F)cc1)c1c(F)cccc1C(F)(F)F` [Compound 103, 2-((E)-{2-[2-fluoro-6-(trifluoromethyl)benzoyl]hydrazono}methyl)-phenyl 4-(trifluoromethyl)benzenesulfonate], for which the pIC50 was over 5.30.

For the compound `O=C(Cc1ccccc1)N/N=C/c1ccccc1OS(=O)(=O)c1ccc(F)cc1` [Compound 129, 2-{(E)-[2-(2-phenylacetyl)hydrazono]methyl}phenyl 4-fluorobenzenesulfonate], the pIC50 is 4.30 to 5.30.

With `CN(C)c1ccc(CC(=O)N/N=C/c2ccccc2OS(=O)(=O)c2ccc(C(F)(F)F)cc2)cc1` [Compound 11, 2-[(E)-(2-{2-[4-(dimethylamino)phenyl]acetyl}hydrazono)-methyl]phenyl 4-(trifluoromethyl)benzenesulfonate], the pIC50 was over 5.30.

Turning to `O=S(=O)(N/N=C/c1ccccc1OS(=O)(=O)c1ccc(C(F)(F)F)cc1)c1cccc2ccccc12` [Compound 256, 2-{(E)-[2-(1-naphthylsulfonyl)hydrazono]methyl}phenyl4-(trifluoromethyl)benzenesulfonate], the pIC50 is 4.30 to 5.30.

Turning to `O=C(Cc1ccccc1)N/N=C/c1ccccc1OS(=O)(=O)c1cccs1` [Compound 109, 2-{(E)-[2-(2-phenylacetyl)hydrazono]methyl}phenylthiophene-2-sulfonate], the pIC50 is under 4.30.

`COc1cccc(CC(=O)N/N=C/c2ccccc2OS(=O)(=O)c2ccc(C(F)(F)F)cc2)c1OC` [Compound 24, 2-((E)-{2-[2-(2,3-dimethoxyphenyl)acetyl]hydrazono}methyl)-phenyl 4-(trifluoromethyl)benzenesulfonate]: the pIC50 is over 5.30.

With `O=C(Cc1ccccc1Br)N/N=C/c1ccccc1OS(=O)(=O)c1ccc(C(F)(F)F)cc1` [Compound 40, 2-((E)-{2-[2-(2-bromophenyl)acetyl]hydrazono}methyl)-phenyl 4-(trifluoromethyl)benzenesulfonate], the pIC50 was over 5.30.

`O=C(Cc1ccccc1)N/N=C/c1ccccc1OS(=O)(=O)c1ccc(-c2ccccc2)cc1` [Compound 144, 2-{(E)-[2-(2-phenylacetyl)hydrazono]methyl}phenyl1,1′-biphenyl-4-sulfonate]: the pIC50 is under 4.30.

As to `O=C(N/N=C/c1ccccc1OS(=O)(=O)c1ccc(C(F)(F)F)cc1)c1ccc(Cl)cc1Cl` [Compound 74, 2-{(E)-[2-(2,4-dichlorobenzoyl)hydrazono]methyl}phenyl4-(trifiuoromethyl)benzenesulfonate], the pIC50 is over 5.30.

As to `O=C(Cc1ccccc1)N/N=C/c1ccccc1OS(=O)(=O)c1ccc(OC(F)(F)F)cc1` [Compound 142, 2-{(E)-[2-(2-phenylacetyl)hydrazono]methyl}phenyl 4-(trifluoromethoxy)benzenesulfonate], the pIC50 was over 5.30.

On to `COc1cccc(CC(=O)N/N=C/c2ccccc2OS(=O)(=O)c2ccc(-c3cnco3)s2)c1` [Compound 200, 2-((E)-{2-[2-(3-methoxyphenyl)acetyl]hydrazono}methyl)-phenyl 5-(1,3-oxazol-5-yl)thiophene-2-sulfonate], for which the pIC50 is over 5.30.

For the compound `Cc1ccc(S(=O)(=O)Oc2cccc(F)c2/C=N/NC(=O)Cc2cccc(Cl)c2)cc1` [Compound 205, 2-((E)-{[(3-chlorophenyl)acetyl]hydrazono}methyl)-3-fluorophenyl 4-methylbenzenesulfonate], the pIC50 was 4.30 to 5.30.

As for `C/C(=N\NC(=O)Cc1cccc(Cl)c1)c1ccccc1OS(=O)(=O)c1ccc(C(F)(F)F)cc1` [Compound 81, 2-{(1E)-N-[(3-chlorophenyl)acetyl]ethanehydrazonoyl}-phenyl 4-(trifluoromethyl)benzenesulfonate], the pIC50 was under 4.30.

As for `COc1cccc(CC(=O)N/N=C/c2c(F)cccc2OS(=O)(=O)c2ccc(C(F)(F)F)cc2)c1` [Compound 207, 3-fluoro-2-((E)-{[(3-methoxyphenyl)acetyl]hydrazono}methyl)-phenyl 4-(trifluoromethyl)benzenesulfonate], the pIC50 was over 5.30.

Regarding `O=C(Cc1cccc(C(F)(F)F)c1)N/N=C/c1ccccc1OS(=O)(=O)c1ccc(C(F)(F)F)cc1` [Compound 35, 2-[(E)-(2-{2-[3-(trifluoromethyl)phenyl]acetyl}hydrazono)-methyl]phenyl 4-(trifluoromethyl)benzenesulfonate], the pIC50 was over 5.30.

Regarding `O=C(Cc1cc(F)c(F)c(F)c1)N/N=C/c1ccccc1OS(=O)(=O)c1ccc(C(F)(F)F)cc1` [Compound 18, 2-((E)-{2-[2-(3,4,5-trifluorophenyl)acetyl]hydrazono}methyl)-phenyl 4-(trifluoromethyl)benzenesulfonate], the pIC50 was over 5.30.

In the case of `O=C(N/N=C/c1ccccc1OS(=O)(=O)c1ccc(C(F)(F)F)cc1)C1CCCCC1` [Compound 101, 2-{(E)-[2-(cyclohexylcarbonyl)hydrazono]methyl}phenyl 4-(trifluoromethyl)benzenesulfonate], the pIC50 is 4.30 to 5.30.

Regarding `COc1ccc(CC(=O)N/N=C/c2ccccc2OS(=O)(=O)c2ccc(C(F)(F)F)cc2)cc1Br` [Compound 70, 2-((E)-{2-[2-(3-bromo-4-methoxyphenyl)acetyl]hydrazono}methyl)-phenyl 4-(trifluoromethyl)benzenesulfonate], the negative logarithm of the IC50 (pIC50) is over 5.30.

For the compound `O=C(Cc1ccc(Cl)cc1)N/N=C/c1ccccc1OS(=O)(=O)c1ccc(C(F)(F)F)cc1` [Compound 7, 2-((E)-{2-[2-(4-chlorophenyl)acetyl]hydrazono}methyl)-phenyl 4-(trifluoromethyl)benzenesulfonate], the pIC50 is over 5.30.

Take `O=C(Cc1ccccc1)N/N=C/c1ccccc1OS(=O)(=O)c1cccc(Cl)c1` [Compound 116, 2-{(E)-[2-(2-phenylacetyl)hydrazono]methyl}phenyl 3-chlorobenzenesulfonate]: the pIC50 was under 4.30.

Take `COc1cccc(CC(=O)N/N=C(\C)c2ccc(F)cc2OS(=O)(=O)c2ccc(C(F)(F)F)cc2)c1` [Compound 222, 5-fluoro-2-{(1E)-N-[(3-methoxyphenyl)acetyl]ethanehydrazonoyl}-phenyl 4-(trifluoromethyl)benzenesulfonate]: the pIC50 is under 4.30.

For `COc1cccc(CC(=O)N/N=C(\C)c2cc(F)ccc2OS(=O)(=O)c2ccc(C(F)(F)F)cc2)c1` [Compound 220, 4-fluoro-2-{(1E)-N-[(3-methoxyphenyl)acetyl]ethanehydrazonoyl}-phenyl 4-(trifluoromethyl)-benzenesulfonate], the pIC50 was under 4.30.

Turning to `CN(c1ccccc1/C=N/NC(=O)Cc1c[nH]cn1)S(=O)(=O)c1ccc(C(F)(F)F)cc1` [Compound 249, N-(2-{(E)-[(1H-imidazol-4-ylacetyl)hydrazono]methyl}phenyl)-N-methyl-4-(trifluoromethyl)benzenesulfonamide], the pIC50 is over 5.30.

With `COc1cccc(CC(=O)N/N=C/c2ccccc2OS(=O)(=O)c2ccc(-n3cccn3)cc2)c1` [Compound 196, 2-((E)-{2-[2-(3-methoxyphenyl)acetyl]hydrazono}methyl)-phenyl 4-(1H-pyrazol-1-yl)benzenesulfonate], the pIC50 was over 5.30.

Consider `COc1cccc(CC(=O)N/N=C/c2cc(OC)ccc2OS(=O)(=O)c2ccc(C)cc2)c1` [Compound 156, 4-methoxy-2-((E)-{[(3-methoxyphenyl)acetyl]hydrazono}methyl)-phenyl 4-methylbenzenesulfonate], for which the negative-log IC50 (pIC50) is over 5.30.

In the case of `CCOc1cccc(/C=N/NC(=O)Cc2cccc(OC)c2)c1OS(=O)(=O)c1ccc(C)cc1` [Compound 161, 2-ethoxy-6-((E)-{[(3-methoxyphenyl)acetyl]hydrazono}methyl)-phenyl 4-methylbenzenesulfonate], the pIC50 was 4.30 to 5.30.

`Cc1ccc(/C=N/NC(=O)Cc2cccc(Cl)c2)c(OS(=O)(=O)c2ccc(C(F)(F)F)cc2)c1` [Compound 179, 2-((E)-{[(3-chlorophenyl)acetyl]hydrazono}methyl)-5-methylphenyl 4-(trifluoromethyl)benzenesulfonate]: the negative logarithm of the IC50 (pIC50) was under 4.30.

Consider `Cc1ccc(S(=O)(=O)Oc2ccccc2/C=N/NC(=O)Cc2cccc(Cl)c2)cc1` [Compound 147, 2-((E)-{2-[2-(3-chlorophenyl)acetyl]hydrazono}methyl)-phenyl 4-methylbenzenesulfonate], for which the pIC50 was over 5.30.

The record behind these values is patent publication US7026339B2, “Inhibitors of HCV NS5B polymerase” (priority 2003, dated 2006).
